Source: patent US20170304359A1, “ORAL IODINE DOSAGE FORM” (priority 2016, published 2017)

Columns and labels:
[1] = tested on: MCF7, MDA-MB231, MCF10A, and primary cells; assay type: cell-based, human
[2] = Aceves et al. 2013; cited from earlier work
[3] = tested on: fibrocystic breast condition; conditions: about 3 to about 12 mg of molecular iodine per day; clinical trials (Kessler 2004; Ghent 1993); cited from earlier work
[4] = tested on: breast cancer and fibrocystic cell lines; test: qRT-PCR gene expression analysis; assay type: cell-based, human; conditions: molecular iodine treatment
Experimental: An in vitro study was performed to assess the effect of molecular iodine in breast cancer and fibrocystic breast cell lines relative to the effects in human mammary epithelial cells (HMEC)(“primary cells”). The study measured gene expression for key markers in each of the cell lines following in vitro addition to the cells of cell media mixtures that comprised iodine species.
As mentioned in the previous paragraph, each of the four cell lines described in the previous paragraph was added to a sample of each of the six cell media mixtures CM1 to CM6. As an untreated control, one sample for each cell line was mixed with media only. Real-time reverse transcription polymerase chain reaction (qRT-PCR) was used to measure several key mRNA markers for apoptosis and cell growth in breast tissue for each combination of cell line and cell media mixture. The measured markers for cell growth were Cyclin D1, Cyclin E1, Cyclin B1, CDK2, and CDKN1B. The measured markers for apoptosis were BCL2 and Caspase 3. Cyclin D1 is required for progression through the G1 phase of the cell cycle. Cyclin E1 is required for cell cycle G1/S transition. Cyclin B1 is involved in the early events of mitosis, such as chromosome condensation, nuclear envelop breakdown, and spindle pole assembly. CDK2 is required for the transition from G1 to S phase and binding with Cyclin A is required to progress through the S phase. CDKN1B binds to and prevents the activation of cyclin E-CDK2 or Cyclin D-CDK4 complexes, and thus controls the cell cycle progression at G1. BCL2 plays an important role in promoting cellular survival and inhibiting the actions of pro-apoptotic proteins. Caspase 3 plays a central role in the execution phase of cell apoptosis. […] Table 4 presents the data normalized to the corresponding data for the primary cells when added to CM6.
BCL-2, an inhibitor of cell death, was increased, while expression of caspase-3 was decreased.

[5] = Aceves et al. 2013; cited from earlier work; remark: listed apart in the source

Compound	selectivity for apoptosis and cell proliferation between cancerous or fibrocystic cells and healthy human mammary epithelial cells [1]	difference in uptake in the thyroid between molecular iodine and iodide [2]	susceptibility of breast cancer cell lines compared to primary cells (cell death) ([1]; 24 hours, FIG. 3)	treatment of fibrocystic breast condition [3]	effects on cell growth in both breast cancer and FBC [4]	BCL-2 expression ([4]; quantitative RT-PCR)	Cyclin B expression levels ([4]; quantitative RT-PCR)	expression of caspase-3 ([4]; quantitative RT-PCR)	expression of cell cycle genes controlling G1-S phase transition ([4]; quantitative RT-PCR)	expression of nuclear hormone receptor PPAR-α ([4]; quantitative RT-PCR)	expression of nuclear hormone receptor PPAR-γ ([4]; quantitative RT-PCR)	uptake difference between molecular iodine and iodide in the breast [5]
[I-].[K+] [CM3, potassium iodide, reference compound]	not present											
II [molecular iodine]		3-4 fold	more susceptible	effective	potent inhibitory effects	increased	No significant changes	decreased	largely up-regulated	up-regulated	up-regulated	small uptake difference
